# Experimental data published in article PMC6268528, “3-Phenylcoumarins as Inhibitors of HIV-1 Replication” (Molecules, 2012).
# Read-outs that look alike come from different tables or passages of the source.
# How the values were obtained:
# non-infected MT-2 cells = assay: Cell viability, MTT assay in non-infected treated cultures; type: cell-based; parameters: Toxicity (%) CC50: unit not given here; details: for Toxicity (%) CC50: MTT, non-infected cultures
# From the text: (§1) The anti-HIV activity of these coumarins on Tat and NF-κB functions has been analysed. To this aim, we have used two stably transfected cell lines. The previously described 5.1 cell line is a Jurkat-derived clone stably transfected with a plasmid containing the luciferase gene under the control of HIV-LTR. In this cell clone, activation with TNFα induces NF-κB activation and subsequent HIV-1 expression. We have also analyzed the anti-HIV activity in HeLa-Tat-Luc cells, in which the HIV-1 LTR is directly activated by the HIV-1 Tat protein. A compound was considered active in one assay if it inhibited the target function by more than 50% (NF-κB) or 30% (Tat) at either 25 or 50 μM concentration. The active compounds were submitted for further evaluation through a HeLa-Tet-ON assay, as previously described. In the Hela-Tet-ON cells the luciferase expression is under control of an artificial promoter that can be activated by tetracycline. Therefore, compounds that inhibit tetracycline-induced luciferase activity were considered non-specific for luciferase-based anti-HIV assays and were not examined further, and those showing specific activity (non-inhibitors in HeLa-Tet-ON cells) were analysed using a recombinant virus (RV) assay. […] In this system, a luciferase reporter gene has been cloned in full-length infectious DNA. The measured luciferase activity is therefore directly proportional to the replication of the virus. This assay is more sensitive and reliable than classic infectious assays. Cell viability was evaluated in non-infected treated cultures following the same protocol as in the recombinant virus assay and measuring cell toxicity with a classical MTT assay. IC50 and CC50 were calculated using GraphPad Prism software [non-linear regression, log (inhibitor) vs. response].
# HIV-1 = assay: Recombinant virus (RV) assay, luciferase reporter virus on MT-2 cells; type: cell-based; details: for rank as inhibitor of HIV replication, in words: RV assay
# Procedure: We have synthesized fourteen 3-phenylcoumarin derivatives and evaluated their anti-HIV activity. Antiviral activity was assessed on MT-2 cells infected with viral clones carrying the luciferase gene as reporter. Inhibition of HIV transcription and Tat function were tested on cells stably transfected with the HIV-LTR and Tat protein. […] The antiviral effect of the 4-hydroxycoumarin derivative 19 correlates with its specific inhibition of Tat functions, while compound 8, 3-(2-chlorophenyl)coumarin, seems to act through a mechanism unrelated to the molecular targets considered in this research.
# (§2) In the characterization of anti-HIV activity, the effect of these coumarins on Tat and NF-κB functions has been evaluated in a similar manner as we described in a previous publication. We have used two transfected 5.1 cell lines, in which we measured NF-κB activation induced by TNFα [42] and HeLa-Tat-Luc cells, in which the HIV-1 LTR is directly activated by the HIV-1 Tat protein. Most of the compounds were submitted for further evaluation through a HeLa-Tet-ON assay in order to determine the selectivity of their action. To avoid missing compounds acting through another mechanism, all substances were also evaluated using a recombinant virus (RV) assay. In this system, a luciferase reporter gene was cloned in full-length infectious DNA. As a result, the measured luciferase activity is therefore proportional to viral replication.
# as §1
# [1] = system: tetracycline-induced luciferase activity in HeLa-Tet-ON cells; assay: HeLa-Tet-ON specificity assay; type: cell-based; parameters: key: S: specific; U: unspecific modes of action
# From the text: as §2, §1
# NF-κB = assay: 5.1 cell line + TNFα, HIV-LTR luciferase (NF-κB activation); type: cell-based; details: for inhibition at 50 µM: read-out: Antiviral activity 5.1 + TNFα 50 µM (inhibition of NF-κB function)
# From the text: as §2, §1
# HIV-1 Tat protein = assay: HeLa-Tat-Luc cells, HIV-1 LTR activated by Tat; type: cell-based; details: for inhibition at 25 µM: Human immunodeficiency virus 1, read-out: Antiviral activity Hela-Tat-luc 25 µM (inhibition of Tat function); for inhibition at 50 µM: Human immunodeficiency virus 1, read-out: Antiviral activity Hela-Tat-luc 50 µM (inhibition of Tat function); for anti-Tat activity and specificity, in words: HeLa-Tat-Luc and Hela-Tet-ON assays
# From the text: as §2, §1
# [2] = Human immunodeficiency virus 1, MT2, read-out: RV (VIH) IC50
Compound,"CC50 (non-infected MT-2 cells; comparison drug, read-out: Toxicity CC50) [µM]","IC50 (HIV-1; recombinant virus, luciferase, read-out: RV (VIH) IC50) [µM]",HeLa-Tet-ON 50 µM (specific / unspecific mode of action) [1],inhibition at 50 µM (NF-κB) [%],inhibition at 25 µM (HIV-1 Tat protein) [%],inhibition at 50 µM (HIV-1 Tat protein) [%],Toxicity (%) CC50 (non-infected MT-2 cells),IC50 (HIV-1; [2]) [µM],melting point [°C],"rank as inhibitor of HIV replication, in words (HIV-1)","inhibitory activity in the NF-κB test, in words (NF-κB; 50 µM)","anti-Tat activity and specificity, in words (HIV-1 Tat protein)",fold lesser potent than 11 in the RV assay (HIV-1; relative to compound 11),"inhibitory activity in the NF-κB test, in words (NF-κB; 25 μM)",inhibition at 25 µM (NF-κB; read-out: Antiviral activity 5.1 + TNFα 25 µM (inhibition of NF-κB function)) [%],"specificity of NF-κB inhibition, in words (NF-κB; with HeLa-Tet-ON evaluation)"
"Cc1cn([C@H]2C[C@H](N=[N+]=[N-])[C@@H](CO)O2)c(=O)[nH]c1=O [AZT, reference compound]",> 1,0.01,–,–,–,–,–,–,–,–,–,–,–,–,–,–
"O=c1oc2ccccc2cc1-c1ccccc1 [Compound 7, 3-Phenyl-2H-chromen-2-one]",–,–,S,21.7 ± 3,26.8 ± 2.9,33.7 ± 1,>50,130 ± 11.4,–,–,–,–,–,–,–,–
"O=c1oc2ccccc2cc1-c1ccccc1Cl [Compound 8, 3-(2-Chlorophenyl)-2H-chromen-2-one]",–,–,S,-28.7 ± 4,–,17.6 ± 2.1,>50,20.7 ± 1.9,186 to 188,second more potent replication inhibitor,–,–,–,–,–,–
"O=c1oc2ccccc2cc1-c1ccc(Cl)cc1 [Compound 9, 3-(4-Chlorophenyl)-2H-chromen-2-one]",–,–,–,33 ± 2.33,–,-4.9 ± 0.8,>50,> 195,190 to 192,–,–,–,–,–,–,–
"COc1ccc(-c2cc3ccccc3oc2=O)cc1 [Compound 10, 3-(4-Methoxyphenyl)-2H-chromen-2-one]",–,–,U,61.2 ± 2.4,73.5 ± 6.7,66.6 ± 3.4,–,73 ± 8.6,141 to 143,–,fair inhibitory activity,potent though unspecific anti-Tat activity,4-5 fold,–,–,–
"CSc1ccc(-c2cc3ccccc3oc2=O)cc1 [Compound 11, 3-(4-Methylsulfanylphenyl)-2H-chromen-2-one]",–,–,U,81.6 ± 5.6,77.5 ± 8.5,80.1 ± 5.6,>50,18.2 ± 0.2,157 to 159,most potent inhibitor of HIV replication,fair inhibitory activity,potent though unspecific anti-Tat activity,–,confirmed,84.3 ± 3,–
"O=c1oc2ccccc2cc1-c1ccc(Cl)cc1Cl [Compound 12, 3-(2,4-Dichlorophenyl)-2H-chromen-2-one]",–,–,S,-40.9 ± 2.3,–,14.1 ± 0.6,>50,> 172,226 to 228,–,–,–,–,–,–,–
"O=c1oc2ccccc2cc1-c1ccc2c(c1)OCO2 [Compound 13, 3-(Benzo[d][1,3]dioxol-5-yl)-2H-chromen-2-one]",–,–,S,68.5 ± 3.4,32.8 ± 4.3,39.5 ± 2.3,16.7 ± 3.4,138 ± 22.3,168 to 170,–,fair inhibitory activity,–,–,–,–,specific inhibitors of the NF-κB function
